Reference: publication PMC3025750 (Journal of medicinal chemistry, 2010)
“Also recorded” adds a separate entry of the source.

Experiments:
[1] = tested on: TCR-induced activation of the proximal IL-2 promoter (NFAT/AP-1) in Jurkat TAg T cells; assay: NFAT/AP-1 dual luciferase reporter assay; format: cell-based; conditions: for NFAT/AP-1 activation in TCR-stimulated sample compared to DMSO control / NFAT/AP-1 signaling in unstimulated sample: 5 μM compound; for NFAT/AP-1 activation in TCR-stimulated sample compared to DMSO control: 45 min, then OKT3 6 hours; for NFAT/AP-1 activation in TCR-stimulated sample compared to DMSO control / dose-dependence of TCR-induced NFAT/AP-1 activation / NFAT/AP-1 signaling in unstimulated sample: Jurkat TAg T cells; for dose-dependence of TCR-induced NFAT/AP-1 activation: dose-response 0.1 to 30 μM; for NFAT/AP-1 signaling in unstimulated sample: no TCR stimulation
[2] = tested on: Lck-pY394 and pζ-chain phosphorylation in Jurkat TAg T cells; assay: Immunoblotting of Lyp's substrates Lck-pY394 and pζ-chain after TCR stimulation; format: cell-based; conditions: 45 min at 37°C, then TCR stimulation, immunoblot
recombinant Lyp = recombinant Lyp (Homo sapiens, UniProt Q9Y2R2); conditions: ratio of IC50 values
Sequence of recombinant Lyp (Q9Y2R2 2-309): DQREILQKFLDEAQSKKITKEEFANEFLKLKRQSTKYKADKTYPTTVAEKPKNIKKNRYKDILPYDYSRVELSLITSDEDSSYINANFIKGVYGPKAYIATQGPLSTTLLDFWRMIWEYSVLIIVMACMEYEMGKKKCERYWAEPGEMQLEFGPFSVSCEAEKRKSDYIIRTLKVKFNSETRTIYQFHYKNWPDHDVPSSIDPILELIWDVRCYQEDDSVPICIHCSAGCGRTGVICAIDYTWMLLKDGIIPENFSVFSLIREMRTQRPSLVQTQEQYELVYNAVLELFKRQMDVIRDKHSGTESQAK

Structure (SMILES): O=C(CCCn1cc(-c2c(-c3ccccc3)oc3cc(O)c(C(=O)O)cc23)nn1)Nc1cccc2ccccc12 [Compound 478, reference compound]
- NFAT/AP-1 activation in TCR-stimulated sample compared to DMSO control [1]: did not show an effect

Structure (SMILES): COc1ccc2nc(NC(=O)CCCn3cc(-c4c(-c5cccc(C)c5)oc5cc(O)c(C(=O)O)cc45)nn3)sc2c1 [Compound 630, 6-hydroxy-3-(1-(4-(6-methoxybenzo[d]thiazol-2-ylamino)-4-oxobutyl)-1H-1,2,3-triazol-4-yl)-2-m-tolylbenzofuran-5-carboxylic acid]
- compound concentration at which NFAT/AP-1 activation was augmented [1]: ≥ 3 µM
- NFAT/AP-1 activation in TCR-stimulated sample compared to DMSO control [1]: considerable higher NFAT/AP-1 activation
- dose-dependence of TCR-induced NFAT/AP-1 activation [1]: dose-dependent effect
- concentration at which pTyr levels of Lck-pY394 and pζ-chain were augmented [2]: 30 μM

Structure (SMILES): Cc1ccc(-c2oc3cc(O)c(C(=O)O)cc3c2-c2cn(CCCC(=O)Nc3ccc(Cl)c4ccccc34)nn2)cc1 [Compound 525, 3-(1-(4-(4-chloronaphthalen-1-ylamino)-4-oxobutyl)-1H-1,2,3-triazol-4-yl)-6-hydroxy-2-p-tolylbenzofuran-5-carboxylic acid]
- compound concentration at which NFAT/AP-1 activation was augmented [1]: submicromolar
- NFAT/AP-1 activation in TCR-stimulated sample compared to DMSO control [1]: considerable higher NFAT/AP-1 activation
- dose-dependence of TCR-induced NFAT/AP-1 activation [1]: dose-dependent effect
- concentration at which pTyr levels of Lck-pY394 and pζ-chain were augmented [2]: 30 μM

Structure (SMILES): Cc1ccc(-c2oc3cc(O)c(C(=O)O)cc3c2-c2cn(CCCC(=O)Nc3cccc4cccnc34)nn2)cc1 [Compound 523]
- NFAT/AP-1 activation in TCR-stimulated sample compared to DMSO control [1]: considerable higher NFAT/AP-1 activation

Structure (SMILES): Cc1ccc(-c2oc3cc(O)c(C(=O)O)cc3c2-c2cn(CCC(=O)Nc3cccc4ccccc34)nn2)cc1 [Compound 530]
- NFAT/AP-1 activation in TCR-stimulated sample compared to DMSO control [1]: considerable higher NFAT/AP-1 activation

Structure (SMILES): COc1ccc(-c2oc3cc(O)c(C(=O)O)cc3c2-c2cn(CCCC(=O)Nc3cccc4ccccc34)nn2)cc1 [Compound 584, 6-hydroxy-2-(4-methoxyphenyl)-3-(1-(4-(naphthalen-1-ylamino)-4-oxobutyl)-1H-1,2,3-triazol-4-yl)benzofuran-5-carboxylic acid]
- compound concentration at which NFAT/AP-1 activation was augmented [1]: submicromolar
- NFAT/AP-1 activation in TCR-stimulated sample compared to DMSO control [1]: considerable higher NFAT/AP-1 activation
- dose-dependence of TCR-induced NFAT/AP-1 activation [1]: dose-dependent effect
- concentration at which pTyr levels of Lck-pY394 and pζ-chain were augmented [2]: 3 μM

Structure (SMILES): O=C(CCCCn1cc(-c2c(-c3ccccc3)oc3cc(O)c(C(=O)O)cc23)nn1)Nc1cccc2ccccc12 [Compound 496]
- NFAT/AP-1 activation in TCR-stimulated sample compared to DMSO control [1]: considerable higher NFAT/AP-1 activation

Structure (SMILES): Cc1ccc(-c2oc3cc(O)c(C(=O)O)cc3c2-c2cn(CCCC(=O)Nc3cccc4ccccc34)nn2)cc1 [Compound 522, 6-hydroxy-3-(1-(4-(naphthalen-1-ylamino)-4-oxobutyl)-1H-1,2,3-triazol-4-yl)-2-p-tolylbenzofuran-5-carboxylic acid]
- compound concentration at which NFAT/AP-1 activation was augmented [1]: submicromolar
- NFAT/AP-1 activation in TCR-stimulated sample compared to DMSO control [1]: considerable higher NFAT/AP-1 activation
- dose-dependence of TCR-induced NFAT/AP-1 activation [1]: dose-dependent effect
- concentration at which pTyr levels of Lck-pY394 and pζ-chain were augmented [2]: 10 μM

Structure (SMILES): O=C(CCn1cc(-c2c(-c3ccccc3)oc3cc(O)c(C(=O)O)cc23)nn1)Nc1cccc2ccccc12 [Compound 495]
- NFAT/AP-1 activation in TCR-stimulated sample compared to DMSO control [1]: considerable higher NFAT/AP-1 activation

Structure (SMILES): COC(=O)c1cc2c(-c3cn(CCCC(=O)Nc4ccc(Cl)c5ccccc45)nn3)c(-c3ccccc3)oc2cc1O [Compound 486, Methyl 3-(1-(4-(4-chloronaphthalen-1-ylamino)-4-oxobutyl)-1H-1,2,3-triazol-4-yl)-6-hydroxy-2-phenylbenzofuran-5-carboxylate]
- compound concentration at which NFAT/AP-1 activation was augmented [1]: submicromolar
- NFAT/AP-1 activation in TCR-stimulated sample compared to DMSO control [1]: considerable higher NFAT/AP-1 activation
- dose-dependence of TCR-induced NFAT/AP-1 activation [1]: dose-dependent effect
- concentration at which pTyr levels of Lck-pY394 and pζ-chain were augmented [2]: 5 μM

Structure (SMILES): O=C(CCCn1cc(-c2c(-c3ccccc3)oc3cc(O)c(C(=O)O)cc23)nn1)Nc1ccc(Br)c2ccccc12 [Compound 482]
- NFAT/AP-1 signaling in unstimulated sample [1]: substantially augmented signaling; also recorded: enhanced T cell signaling in a non TCR-mediated manner

Structure (SMILES): Cc1ccc(-c2oc3cc(O)c(C(=O)O)cc3c2-c2cn(CCCC(=O)Nc3ccc(Br)c4ccccc34)nn2)cc1 [Compound 526]
- NFAT/AP-1 activation in TCR-stimulated sample compared to DMSO control [1]: modest
- NFAT/AP-1 signaling in unstimulated sample [1]: substantially augmented signaling; also recorded: enhanced T cell signaling in a non TCR-mediated manner
- improvement of Lyp inhibitory activity over the original compound 478 (recombinant Lyp): 17 fold
